{"source": "PubChem BioAssay (NCI)", "assay_in_all_cases": "NCI anticancer screen, dose series, 384-well format", "key": {"[1]": {"test_system": "DU-145 prostate"}, "[2]": {"test_system": "HT29 colon"}, "[3]": {"test_system": "UO-31 renal"}, "[4]": {"test_system": "OVCAR-5 ovarian"}, "[5]": {"test_system": "RXF 393 renal"}, "[6]": {"test_system": "NCI-H522 lung"}, "[7]": {"test_system": "HS 578T breast"}, "[8]": {"test_system": "OVCAR-8 ovarian"}, "[9]": {"test_system": "PC-3 prostate"}, "[10]": {"test_system": "SW-620 colon"}, "[11]": {"test_system": "HCT-116 colon"}, "[12]": {"test_system": "SK-MEL-2 melanoma"}, "[13]": {"test_system": "OVCAR-3 ovarian"}, "[14]": {"test_system": "MCF7 breast"}, "[15]": {"test_system": "ACHN renal"}, "[16]": {"test_system": "RPMI-8226 leukemia"}, "[17]": {"test_system": "MOLT-4 leukemia"}, "[18]": {"test_system": "SNB-75 CNS"}, "[19]": {"test_system": "NCI/ADR-RES ovarian"}, "[20]": {"test_system": "HCT-15 colon"}, "[21]": {"test_system": "SN12C renal"}, "[22]": {"test_system": "HL-60(TB) leukemia"}, "[23]": {"test_system": "SK-MEL-28 melanoma"}, "[24]": {"test_system": "K-562 leukemia"}, "[25]": {"test_system": "HOP-92 NSCLC"}, "[26]": {"test_system": "M14 melanoma"}, "[27]": {"test_system": "SF-268 CNS"}, "[28]": {"test_system": "MDA-MB-468 breast"}, "[29]": {"test_system": "MDA-MB-231 breast"}, "[30]": {"test_system": "SNB-19 CNS"}, "[31]": {"test_system": "HOP-62 NSCLC"}, "[32]": {"test_system": "CCRF-CEM leukemia"}, "[33]": {"test_system": "NCI-H226 lung"}, "[34]": {"test_system": "KM12 colon"}, "[35]": {"test_system": "U251 glioblastoma"}, "[36]": {"test_system": "MDA-MB-435 melanoma"}, "[37]": {"test_system": "EKVX NSCLC"}, "[38]": {"test_system": "OVCAR-4 ovarian"}, "[39]": {"test_system": "IGROV1 ovarian"}, "[40]": {"test_system": "786-0 renal"}, "[41]": {"test_system": "UACC-257 melanoma"}, "[42]": {"test_system": "BT-549 breast"}, "[43]": {"test_system": "SF-539 CNS"}, "[44]": {"test_system": "CAKI-1 renal"}, "[45]": {"test_system": "MALME-3M melanoma"}, "[46]": {"test_system": "UACC-62 melanoma"}}, "note": "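The concentration for 50% growth inhibition is given as GI50. TGI is the concentration that stops growth completely.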", "data": [{"smiles": "CC1=C(/C=C/C(C)=C/C=C/C(C)=C/C(=O)O)C(C)(C)CCC1", "values": [{"measurement": "GI50", "setting": "[1]", "result": 45.7, "unit": "µM"}, {"measurement": "TGI", "setting": "[1]", "result": "> 100", "unit": "µM"}, {"measurement": "GI50", "setting": "[2]", "result": 21.6, "unit": "µM"}, {"measurement": "TGI", "setting": "[2]", "result": 46, "unit": "µM"}, {"measurement": "GI50", "setting": "[3]", "result": 86, "unit": "µM"}, {"measurement": "TGI", "setting": "[3]", "result": "> 100", "unit": "µM"}, {"measurement": "GI50", "setting": "[4]", "result": 37.2, "unit": "µM"}, {"measurement": "TGI", "setting": "[4]", "result": "> 100", "unit": "µM"}, {"measurement": "GI50", "setting": "[5]", "result": 24.3, "unit": "µM"}, {"measurement": "TGI", "setting": "[5]", "result": 57.5, "unit": "µM"}, {"measurement": "GI50", "setting": "[6]", "result": 24.1, "unit": "µM"}, {"measurement": "TGI", "setting": "[6]", "result": 51.5, "unit": "µM"}, {"measurement": "GI50", "setting": "[7]", "result": 16.4, "unit": "µM"}, {"measurement": "TGI", "setting": "[7]", "result": 40, "unit": "µM"}, {"measurement": "GI50", "setting": "[8]", "result": 24.1, "unit": "µM"}, {"measurement": "TGI", "setting": "[8]", "result": 58.3, "unit": "µM"}, {"measurement": "GI50", "setting": "[9]", "result": 19.8, "unit": "µM"}, {"measurement": "TGI", "setting": "[9]", "result": 39.7, "unit": "µM"}, {"measurement": "GI50", "setting": "[10]", "result": 47.3, "unit": "µM"}, {"measurement": "TGI", "setting": "[10]", "result": "> 100", "unit": "µM"}, {"measurement": "GI50", "setting": "[11]", "result": 20.6, "unit": "µM"}, {"measurement": "TGI", "setting": "[11]", "result": 39, "unit": "µM"}, {"measurement": "GI50", "setting": "[12]", "result": 27.7, "unit": "µM"}, {"measurement": "TGI", "setting": "[12]", "result": 49.7, "unit": "µM"}, {"measurement": "GI50", "setting": "[13]", "result": 19.6, "unit": "µM"}, {"measurement": "TGI", "setting": "[13]", "result": 34.9, "unit": "µM"}, {"measurement": "GI50", "setting": "[14]", "result": 18, "unit": "µM"}, {"measurement": "TGI", "setting": "[14]", "result": "> 100", "unit": "µM"}, {"measurement": "GI50", "setting": "[15]", "result": 52.2, "unit": "µM"}, {"measurement": "TGI", "setting": "[15]", "result": "> 100", "unit": "µM"}, {"measurement": "GI50", "setting": "[16]", "result": 293, "unit": "nM"}, {"measurement": "TGI", "setting": "[16]", "result": 11.3, "unit": "µM"}, {"measurement": "GI50", "setting": "[17]", "result": 14.6, "unit": "µM"}, {"measurement": "TGI", "setting": "[17]", "result": 27.9, "unit": "µM"}, {"measurement": "GI50", "setting": "[18]", "result": 31.5, "unit": "µM"}, {"measurement": "TGI", "setting": "[18]", "result": 79.2, "unit": "µM"}, {"measurement": "GI50", "setting": "[19]", "result": "> 100", "unit": "µM"}, {"measurement": "TGI", "setting": "[19]", "result": "> 100", "unit": "µM"}, {"measurement": "GI50", "setting": "[20]", "result": 22.7, "unit": "µM"}, {"measurement": "TGI", "setting": "[20]", "result": 52.6, "unit": "µM"}, {"measurement": "GI50", "setting": "[21]", "result": 25.9, "unit": "µM"}, {"measurement": "TGI", "setting": "[21]", "result": 89.1, "unit": "µM"}, {"measurement": "GI50", "setting": "[22]", "result": 25.9, "unit": "nM"}, {"measurement": "TGI", "setting": "[22]", "result": 16.9, "unit": "µM"}, {"measurement": "GI50", "setting": "[23]", "result": 47.1, "unit": "µM"}, {"measurement": "TGI", "setting": "[23]", "result": "> 100", "unit": "µM"}, {"measurement": "GI50", "setting": "[24]", "result": 21.5, "unit": "µM"}, {"measurement": "TGI", "setting": "[24]", "result": 41.3, "unit": "µM"}, {"measurement": "GI50", "setting": "[25]", "result": 38.9, "unit": "µM"}, {"measurement": "TGI", "setting": "[25]", "result": "> 100", "unit": "µM"}, {"measurement": "GI50", "setting": "[26]", "result": 19.4, "unit": "µM"}, {"measurement": "TGI", "setting": "[26]", "result": 38, "unit": "µM"}, {"measurement": "GI50", "setting": "[27]", "result": 22.9, "unit": "µM"}, {"measurement": "TGI", "setting": "[27]", "result": 49.1, "unit": "µM"}, {"measurement": "GI50", "setting": "[28]", "result": 25.4, "unit": "µM"}, {"measurement": "TGI", "setting": "[28]", "result": 48.4, "unit": "µM"}, {"measurement": "GI50", "setting": "[29]", "result": 25.4, "unit": "µM"}, {"measurement": "TGI", "setting": "[29]", "result": 72.2, "unit": "µM"}, {"measurement": "GI50", "setting": "[30]", "result": 30.1, "unit": "µM"}, {"measurement": "TGI", "setting": "[30]", "result": "> 100", "unit": "µM"}, {"measurement": "GI50", "setting": "[31]", "result": "> 100", "unit": "µM"}, {"measurement": "TGI", "setting": "[31]", "result": "> 100", "unit": "µM"}, {"measurement": "GI50", "setting": "[32]", "result": 20.1, "unit": "µM"}, {"measurement": "TGI", "setting": "[32]", "result": 34.5, "unit": "µM"}, {"measurement": "GI50", "setting": "[33]", "result": 33.2, "unit": "µM"}, {"measurement": "TGI", "setting": "[33]", "result": "> 100", "unit": "µM"}, {"measurement": "GI50", "setting": "[34]", "result": 38, "unit": "µM"}, {"measurement": "TGI", "setting": "[34]", "result": "> 100", "unit": "µM"}, {"measurement": "GI50", "setting": "[35]", "result": "> 100", "unit": "µM"}, {"measurement": "TGI", "setting": "[35]", "result": "> 100", "unit": "µM"}, {"measurement": "GI50", "setting": "[36]", "result": 55.6, "unit": "µM"}, {"measurement": "TGI", "setting": "[36]", "result": "> 100", "unit": "µM"}, {"measurement": "GI50", "setting": "[37]", "result": "> 100", "unit": "µM"}, {"measurement": "TGI", "setting": "[37]", "result": "> 100", "unit": "µM"}, {"measurement": "GI50", "setting": "[38]", "result": 46, "unit": "µM"}, {"measurement": "TGI", "setting": "[38]", "result": "> 100", "unit": "µM"}, {"measurement": "GI50", "setting": "[39]", "result": "> 100", "unit": "µM"}, {"measurement": "TGI", "setting": "[39]", "result": "> 100", "unit": "µM"}, {"measurement": "GI50", "setting": "[40]", "result": 29.7, "unit": "µM"}, {"measurement": "TGI", "setting": "[40]", "result": 75.9, "unit": "µM"}, {"measurement": "GI50", "setting": "[41]", "result": 33.4, "unit": "µM"}, {"measurement": "TGI", "setting": "[41]", "result": "> 100", "unit": "µM"}, {"measurement": "GI50", "setting": "[42]", "result": 20.3, "unit": "µM"}, {"measurement": "TGI", "setting": "[42]", "result": 36.5, "unit": "µM"}, {"measurement": "GI50", "setting": "[43]", "result": 12, "unit": "µM"}, {"measurement": "TGI", "setting": "[43]", "result": 24.9, "unit": "µM"}, {"measurement": "GI50", "setting": "[44]", "result": 38.6, "unit": "µM"}, {"measurement": "TGI", "setting": "[44]", "result": "> 100", "unit": "µM"}, {"measurement": "GI50", "setting": "[45]", "result": 950, "unit": "nM"}, {"measurement": "GI50", "setting": "[46]", "result": 19.2, "unit": "µM"}, {"measurement": "TGI", "setting": "[46]", "result": 40.2, "unit": "µM"}]}]}
